The results in this text go back to patent publication EP3831363A1 (Solis Herrera, Arturo, priority 2019, dated 2021).

≈ marks a conversion by molar mass, not a printed value.

One data set has as its system WI-38 cells. Briefly: cells. As to conditions: Homo sapiens, WI-38, 96 h. On the procedure: (§1) Further, a proliferation test was prepared for the same three cell lines: WI-38, A549 and HS 683. 3x10^4 WI-38 cells and 2x10^4 A549 and HS 683. Cells were seeded into each wells in 96-well culture plates in appropriate culture medium with 10% FBS (fetal bovine serum). […] After 96 hours incubation in 37°C/5%CO2 MTT assay was performed for establishing the cell viability.

Another data set relates to HS-683. Briefly: cells. As to conditions: Homo sapiens, Hs 683, 96 h. On the procedure:
as §1

For another data set, the system named is A549 cells. The experiment in a line: cells. The following applies: Homo sapiens, A549, 96 h. On the procedure: as §1
For data set [1] the following is noted: in vivo.
Source text: Thereby the healing process of a human ulcer is examined as a basic condition.
The conditions of data set [2]: rats given 4,5 mg/kg of mercury (HgHCI); treatment of 0,0937 mg/ml; without treatment 6 in 8 rats died.
A further data set can be described thus: in vitro. As to conditions: human, peripheral blood leukocytes.
The subject of another data set is IFN-γ production. As to the method:
(§2) After 24 hours of incubation in 37°C/5%CO2 samples of leukocytes and supernatants were collected.
(§3) Cytokine levels were determined using ELISA kits (BD Biosciences, USA) for human IFNγ, TNF-α and IL-6 and DuoSet for human IL-3 (R&D Systems, USA) according to the producers' instructions. The optical density was measured at 450 nm using a Multiskan RC spectrophotometric reader (Thermo Labsystems, USA), Cytokine concentrations were expressed in pg/ml.

For a further data set, the system named is TNF-α production. As to the method:
as §2, §3

The subject of a further data set is IL-6 production. As to the method: as §2, §3
In the next data set the test system is H1N1 virus. The following applies: H1N1 infected chicken, 0,002 mg/kg each 24 hours, 24 hours after treatment, versus control group.
In a further data set the test system is human PBLs. As to conditions: human leukocytes, 48 hours, MTT.
[3] abbreviates: read-out: concentration that inhibits 50% of the proliferation.

Procedure for human PBLs: (§4) Thereby, cell viability was determined on the basis of the mitochondria-dependent reduction of MTT (3-[4,5-dimethyltiazol 2yl]-2,5-diphenyltetrazolium bromide) to formazan. […] Next cells were treated with 20 µl of MTT. After 3 hours of incubation at 37°C, the formazan blue formed in the cells was dissolved in 100 µl of SDS (sodium dodecylsulfate) for 3 hours in 37°C. The optical density was measured at 570 nm.
(§5) After the cytotoxicity tests LC50 (LCso-lethal concentration, 50%-dose required to kill half of the cells after a specified test duration) were estimated for each cell lines and PBLs (leukocytes of peripheral blood). Additionally for PBLs LC10 and LC5 were calculated.
Procedure for in vitro: as §4, §5

As to `CN1CCC[C@H]1c1cccnc1`, the IC50 in the data set with WI-38 cells (setting [3]) is 1000 µg/mL (≈ 6.16 mM); in the data set with HS-683 (setting [3]), 2900 µg/mL (≈ 17.9 mM); with A549 cells (setting [3]), 2000 µg/mL (≈ 12.3 mM). In addition, the IC99 in the data set with WI-38 cells (read-out: concentration that inhibits a proliferation of 99%) worked out at 4500 µg/mL; in the data set with HS-683 (read-out: concentration at which 99% of proliferation are inhibited), 5500 µg/mL; in the data set with A549 cells (read-out: concentration that inhibits 99% of the proliferation) it was 5500 µg/mL. In addition, in [1], the “healing effect on ulcer” value was “increased healing effect”. Moreover, the mortality in [2] is 0,625 of 8 rats. Also, the CC50 at 48 h in the data set “in vitro” is 7000 µg/mL (≈ 43.1 mM). The “effect on IFN-γ production” value in the data set with IFN-γ production is recorded as “strongly decreases the level of interferon in a dose-dependent manner”. Besides, in the data set on TNF-α production, the “effect on TNF-α production” value is reported as “increases the level of cytokines in a dose-dependent manner”. Further, in the data set on IL-6 production, the “effect on IL-6 production” value is “no effect”. The egg production entry in the data set with H1N1 virus is listed as “began to lay off eggs”. For the same compound, the LC5 with human PBLs was 0,5 mg/ml. Besides, in the data set on human PBLs, the LC10 was determined as 1000 µg/mL (≈ 6.16 mM).
